pEC50: −log10 of the molar value. Like-named read-outs stand apart in the source and are kept apart here.
Legend:
[1] = molecular target: T1, human recombinant CB2 (Homo sapiens, UniProt P34972); experiment: CB2R radioligand binding, membranes from HEK293 cells over-expressing human recombinant CB2
T1 construct: purchased Perkin-Elmer; host or cells: HEK293
Method: (§1) Flavonoid compounds of general formula (I) above were evaluated for their ability to activate Cannabinoid Receptor 1 (CBLR) and Cannabinoid Receptor 2 (CB2R).
CB2R experiments were performed using membranes from HEK293 cells over-expressing human recombinant CB2, as described by the manufacturer (Perkin-Elmer), and using [3H]CP-55,495 as the radioligand.
(§2) Data of active compounds are expressed in Ki (mM) and are means±SEM of n=3 determinations.
(§3) The values that are stated for each of the compounds is an EC50 value. This is defined as the molar concentration of an agonist, which produces 50% of the maximum possible response for that agonist. The values documented are in micromolar units.

[2] = molecular target: T2, human recombinant CB1 (Homo sapiens, UniProt P21554); experiment: CB1R radioligand binding, membranes from HEK293 cells over-expressing human recombinant CB1
T2 construct: purchased Perkin-Elmer; host or cells: HEK293
Method: as §1
CB1R experiments were performed using membranes from HEK293 cells over-expressing human recombinant CB1, as described by the manufacturer (Perkin-Elmer) and using [3H]CP-55,490 as the radioligand.
as §2, §3

T2 sequence (P21554 whole entry): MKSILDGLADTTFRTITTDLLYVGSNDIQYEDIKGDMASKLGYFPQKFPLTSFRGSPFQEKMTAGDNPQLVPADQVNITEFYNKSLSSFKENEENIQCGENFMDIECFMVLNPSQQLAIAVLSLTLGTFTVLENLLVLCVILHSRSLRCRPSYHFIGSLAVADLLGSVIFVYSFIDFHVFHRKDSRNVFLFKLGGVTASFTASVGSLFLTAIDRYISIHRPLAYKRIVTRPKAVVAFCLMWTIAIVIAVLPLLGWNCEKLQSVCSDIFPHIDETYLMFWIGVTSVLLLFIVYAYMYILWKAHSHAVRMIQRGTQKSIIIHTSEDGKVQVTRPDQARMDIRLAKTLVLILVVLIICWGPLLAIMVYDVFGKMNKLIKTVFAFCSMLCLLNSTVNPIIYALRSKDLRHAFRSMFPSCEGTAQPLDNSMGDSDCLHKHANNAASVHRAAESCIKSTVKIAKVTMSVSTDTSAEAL
T1 sequence (P34972 whole entry): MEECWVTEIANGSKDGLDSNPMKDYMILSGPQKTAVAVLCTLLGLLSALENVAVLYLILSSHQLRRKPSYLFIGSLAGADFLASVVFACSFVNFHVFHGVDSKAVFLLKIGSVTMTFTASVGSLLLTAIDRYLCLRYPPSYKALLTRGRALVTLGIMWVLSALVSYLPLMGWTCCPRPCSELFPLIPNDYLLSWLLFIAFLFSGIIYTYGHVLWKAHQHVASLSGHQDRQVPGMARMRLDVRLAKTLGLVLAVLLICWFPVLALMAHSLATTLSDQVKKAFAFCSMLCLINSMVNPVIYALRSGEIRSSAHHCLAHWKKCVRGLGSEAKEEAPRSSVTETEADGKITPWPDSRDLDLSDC

pEC50 ([1]; HEK293 membranes, [3H]CP-55,495 radioligand, means of n=3, read-out: CB2R Activity) | pEC50 ([2]; HEK293 membranes, [3H]CP-55,490 radioligand, means of n=3, read-out: CB1R Activity) | SMILES | pEC50 [1] | pEC50 [2] | activation of Cannabinoid Receptor 2 (statement in words) [1] | activation of Cannabinoid Receptor 1 (statement in words) [2]
 |  | COc1cc(O)c(CC=C(C)C)c2c1C(=O)C[C@@H](c1ccc(O)cc1)O2 [Example 1, 4′, 7-dihydroxy-5-methoxy-8-prenylflavanone] | < 4.60 | 5.12 |  | 
 |  | CC(C)=CCc1c(O)cc(O)c2c1O[C@H](c1ccc(O)cc1)CC2=O [Example 2, 4′,5,7-trihydroxy-8-prenylflavanone] | < 4.60 | 5.34 |  | 
4.81 | < 4.60 | O=C1C[C@@H](c2ccccc2)Oc2cc(O)cc(O)c21 [Example 3, 5,7-dihydroxyflavanone] |  |  |  | 
 |  | COc1cc(O)c2c(c1)O[C@H](c1ccccc1)CC2=O [Example 4, 5-hydroxy-7-methoxyflavanone] | 5.04 | 6.10 | can activate both | can activate both
 |  | COc1cc(O)c2c(c1)O[C@H](c1ccc(O)cc1)CC2=O [Example 5, 5,4′-dihydroxy-7-methoxyflavanone] | < 4.60 | 5.42 |  | 
